Measurements reported in paper PMC5520492, “Inhibition of DNA2 nuclease as a therapeutic strategy targeting replication stress in cancer cells” (Oncogenesis, 2017).
Entries after “also recorded” stand apart in the source; their conditions may differ.

Legend:
Format in all cases: cell-based, human
[1] = system: MCF10A cells with inducible H-Ras expression; test: MTT proliferation, MCF10A with inducible H-Ras; details: 48-h treatment, doxycycline induction
Protocol: (§1) Figure 5 Oncogene induction enhances sensitivity of cancer cells to NSC-105808. (a-e) Graphs showing proliferation of indicated cell lines in response to a 48-h treatment with the indicated concentrations of NSC-105808. Proliferation relative to cells treated with vehicle alone was determined by the 3-(4,5-dimethylthiazol-2-yl)-2,5-diphenyltetrazolium bromide (MTT) assay. Each value represents the mean±s.e.m. from three independent experiments. (a) Proliferation of control pancreatic epithelial cells DT-PD59 and transformed pancreatic cancer cells AsPC-1 and PANC-1. (b) Proliferation of normal breast epithelial cells MCF10A and breast cancer cells Hs578T and BT549. (c) Proliferation of MCF10A cells with or without H-Ras expression. H-Ras was induced with doxycycline (2 μg/ml). […]
(§2) Cell proliferation was measured by 3-(4,5-dimethylthiazol-2-yl)-2,5-diphenyltetrazolium bromide (Sigma) reduction (Supplementary Materials and Methods).
(§3) To determine the cell proliferation rate, 1000 cells/well were seeded in a 96-well plate in a total volume of 100 µl in triplicate in each experiment. […] Plates were read at 490 nm and 650 nm (background) in a
(§4) microplate reader (Molecular Devices). After the subtraction of background, cell viability was calculated as fold change relative to control cells.

U2OS SSA reporter cells = test: Single strand annealing (SSA) GFP reporter assay; details: 24-h treatment
Description: The DR-green fluorescent protein, pCAGGS and pCBASce plasmids were kindly provided by Dr Maria Jasin (Memorial Sloan-Kettering Cancer Center, New York, NY, USA). U2OS cells containing a single copy of the HR repair reporter substrate DR-green fluorescent protein were generated as previously described.[48] Single stand annealing reporter cells were kindly provided by Dr Jeremy Stark (Beckman Research Institute of the City of Hope, Duarte, CA, USA).[49] Details in Supplementary Materials and Methods.
Figure S6. NSC-105808 reduces DSB repair by SSA. Cells were transfected with EGFP or I-SceI plasmids for 24 hrs and then cultured for an additional 48 hr before analysis by flow cytometry (top). Treatment with NSC-105808 was for 24 hrs prior to flow cytometry. Bar graph showing SSA efficiency in cells treated with NSC-105808 as compared to control cells treated with DMSO. The average data from three independent experiments are shown, with the error bars representing standard deviation (n=3, bottom).
The GFP expressing plasmid (pEGFP-C1) was used for transfection efficiency control. Cells were transfected with the pCBASce plasmid. […] Efficiency of HR and SSA was calculated by normalizing I-SceI-induced GFP expression with EGFP transfection-induced GFP expression. […]

[2] = system: MCF10AT1, MCF10-DCIS, MCF10CA1a versus MCF10A cells; test: MTT proliferation, MCF10A progression series; details: 48-h treatment
Protocol: as §1, §2, §3, §4

[3] = system: AsPC-1, PANC-1 versus DT-PD59 cells; test: MTT proliferation, pancreatic cell lines; details: 48-h treatment
Protocol: as §1, §2, §3, §4

U2OS cells = test: RPA phosphorylation after camptothecin (immunofluorescence, chromatin fractionation); details: NSC-105808 2 h, 0.3 μM; CPT 2 h, 1 μM
Protocol: Figure 4 NSC-105808 inhibits HR repair and DSB end resection. (a) Analysis of HR efficiency with the DR-green fluorescent protein (GFP) assay. Representative images of flow cytometry analysis and bar graph showing percentage of GFP cells from at least three independent experiments. Each value represents the mean±s.d. (b, c) Analysis of RPA phosphorylation in U2OS cells treated with NSC-105808 (2 h, 0.3 μM) and/or camptothecin (CPT; 2 h, 1 μM). (b) Representative images of cells subjected to immunofluorescent staining of p-RPA and bar graph showing percentage of cells with positive p-RPA staining from three independent experiments. Each value represents the mean±s.d. (c) Western blot analysis of chromatin fraction with the indicated antibodies. (d) Analysis of colony formation by FANCD2 (+/+) and FANCD2 (−/−) cells treated with cisplatin and/or NSC-105808. Each value is relative to the untreated control group of each cell line. The graph represents the mean±s.e.m. from three independent experiments. *P<0.01.
For the detection of DNA damage-induced p-RPA34 (S4/S8), immunofluorescent staining, and the preparation of chromatin fractions and western blot analyses were performed as described previously.[33], [48]

[4] = system: Hs578T and BT549 versus MCF10A cells; test: MTT proliferation, breast cell lines; details: 48-h treatment
Protocol: as §1, §2, §3, §4

DNA2 protein level = test: Western blot of cellular DNA2 protein level; details: U2OS, PANC-1, Hs578T; up to 12 hrs
Protocol: Figure S8. Analysis of DNA2 protein levels in cells treated with NSC-105808. U2OS (a), PANC-1 (b) and Hs578T (c) cells were treated with the indicated concentrations of NSC-105808 for 4 hours (right) or with a single concentration of NSC-105808 (0.3 µM for U2OS and Hs578T cells; 0.6 µM for PANC-1 cells) for 0, 4, 8, or 12 hrs (left). The results were quantified and are shown below each panel, with the error bars representing the mean ± SD of three independent experiments.

[5] = system: DT-PD77 cells with E6/E7 oncoprotein versus DT-PD59; test: MTT proliferation, DT-PD59 versus E6/E7 DT-PD77; details: 48-h treatment
Protocol: as §1, §2, §3, §4

SMILES: NC1=C(Br)C(=O)c2ncccc2C1=O [NSC-105808, 6-amino-7-bromoquinoline-5,8-dione]
- Sensitivity upon activation of H-Ras [1]: increased sensitivity
- DSB repair by single stand annealing (U2OS SSA reporter cells): significantly reduced
- Sensitivity of cell lines with oncogene activation compared with MCF10A control [2]: more sensitive
- Sensitivity of transformed pancreatic cancer cell lines compared with non-transformed DT-PD59 [3]: more sensitive
- Accumulation of camptothecin-induced p-RPA (U2OS cells): significantly attenuated
- γ-H2AX level in chromatin fraction (U2OS cells): concomitant enhancement
- Sensitivity of transformed breast cancer cells compared with MCF10A [4]: more sensitive
- Impact on cellular level of DNA2 protein (DNA2 protein level): No statistically significant difference; also recorded: no impact
- Sensitivity in cells with E6/E7 oncoprotein-induced replication stress [5]: higher
